According to US6630464B1, “Cyclin dependent kinase (CDK)4 inhibitors and their use for treating cancer” (The United States of America as represented by the …, priority 1997, dated 2003):
Where two headings read alike, the source gives them in different places.

What was measured:
CDK4:cyclin D1 = CDK4:cyclin D1 (Homo sapiens, UniProt P11802); experiment: In vitro kinase assay, CDK4:cyclin D1, GST-Rb substrate; conditions: for CDK4 kinase inhibitory potency compared with parent compounds: parents 3-ATA and Compound 6
Sequence of CDK4:cyclin D1 (P11802 whole entry): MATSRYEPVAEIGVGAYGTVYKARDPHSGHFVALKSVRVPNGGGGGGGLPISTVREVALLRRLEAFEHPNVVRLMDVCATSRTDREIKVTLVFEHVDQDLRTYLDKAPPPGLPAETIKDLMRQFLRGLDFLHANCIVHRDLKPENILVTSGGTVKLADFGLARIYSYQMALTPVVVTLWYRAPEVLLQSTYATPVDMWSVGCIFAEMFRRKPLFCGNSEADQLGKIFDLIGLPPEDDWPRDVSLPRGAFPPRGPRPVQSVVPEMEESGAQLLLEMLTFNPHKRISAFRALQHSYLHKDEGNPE
Sequence of CDK4:cyclin D1 (P24385 whole entry partner): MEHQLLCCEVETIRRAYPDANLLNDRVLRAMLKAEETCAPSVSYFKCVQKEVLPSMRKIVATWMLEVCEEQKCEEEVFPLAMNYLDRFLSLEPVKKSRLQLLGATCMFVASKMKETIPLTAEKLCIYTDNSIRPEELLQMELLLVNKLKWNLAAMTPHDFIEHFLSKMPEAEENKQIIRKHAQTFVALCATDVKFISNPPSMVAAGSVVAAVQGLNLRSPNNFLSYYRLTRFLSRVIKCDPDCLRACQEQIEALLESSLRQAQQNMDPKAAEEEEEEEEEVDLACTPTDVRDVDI
Protocol: In vitro kinase assay. Seventy-two hours after infection of 1×10^7 Sf9 cells with baculovirus containing a human CDK gene and/or a cyclin gene, cells were lysed in 250 μl of lysis buffer [50 mM HEPES (pH 7.5), 10 mM MgCl2, 1 mM DTT, 5 ig/ml of aprotinin, 5 μg/ml of leupeptin, 0.1 mM NaF, 0.2 mM phenylmethylsulfonyl fluoride (PMSF), and 0.1 mM sodium orthovanadate], centrifuged, and lysates stored at −70° C. Five microliters of CDK:cyclin lysate were mixed with test compounds in 40 μl of kinase buffer (200 mM Tris-HCl, pH 8.0, 100 mM MgCl2, 10 mM EGTA) and incubated at 30° C. for 30 min. About 400 ng of purified GST-Rb fusion protein and 5 μCi of γ-[^32P]ATP were added to the mixture and incubated at 30° C. for 15 min. Reactions were stopped by the addition of 250 μl of IP buffer (50 mM Tris-HCl, pH 8.0; 150 mM NaCl, 0.5% NP-40) and 15 μl glutathione sepharose. After one hour incubation at 4° C., sepharose beads were washed four times with IP buffer, mixed with 18 μl of 2×sample buffer and electrophoresed on an 8% Tris-glycine gel (Novex, San Diego, Calif.) at 125 V for 90 min. Equal recovery of GST-Rb fusion protein was confirmed by Coomassie blue staining prior to autoradiography.
These compounds were assessed for CDK4:cylin D kinase inhibitory activity using baculovirus-expressed human CDK4 and cyclin D1, and a GST-Rb fusion protein as substrate.
CDC2:cyclin A = target: T1, CDC2:cyclin A (Homo sapiens, UniProt P06493); experiment: In vitro kinase assay, CDC2:cyclin A; format: biochemical; conditions: for Ratio CDC2A:CDK4: (IC50 CDC2)/(IC50 CDK4)
T1 construct: made in house; host or cells: Sf9 insect cells, baculovirus; unpurified lysate
Source text: (§1) Characterization of 3-ATA. To examine the specificity of 3-ATA inhibitory activity for CDK4:cyclin D1 kinase, we performed in vitro kinase assays using baculovirus-expressed human CDC2:cyclin A, CDK2:cyclin A, and CDK2:cyclin E complexes.

CDK2:cyclin A = target: T2, CDK2:cyclin A (Homo sapiens, UniProt P24941); experiment: In vitro kinase assay, CDK2:cyclin A; format: biochemical; conditions: for Ratio CDK2/A:CDK4: IC50 ratio, CDK4 as denominator
T2 construct: made in house; host or cells: Sf9 insect cells, baculovirus; unpurified lysate
Source text: as §1

CDK2:cyclin E = target: T3, CDK2:cyclin E (Homo sapiens, UniProt P24941); experiment: In vitro kinase assay, CDK2:cyclin E; format: biochemical; conditions: for Ratio CDK2/E:CDK4: IC50 ratio, CDK4 as denominator
T3 construct: made in house; host or cells: Sf9 insect cells, baculovirus; unpurified lysate
Source text: as §1

CDK4 = target: T4, CDK4 (Homo sapiens, UniProt P11802); experiment: CDK4 binding assay (GST-p16 binding to CDK4)
T4 construct: made in house; host or cells: CDK4 and cyclin D1: Sf9 cells, baculovirus, [35S]methionine-labelled cleared lysate; GST-p16: E. coli DH5α
T4 sequence (P11802 whole entry): as the sequence (P11802 whole entry) above
Protocol: CDK4 binding assay. Sf9 cells (1×10^7) were co-infected with baculovirus containing a cloned human CDK4 gene and/or a cyclin D1 gene in 12.5 ml of Grace's insect medium (Paragon, Baltimore, Md.) containing 10% FBS. After 40 h, cells were washed and placed in 5 ml of methionine-free medium containing 200 μCi/ml of [^35S]methionine (1000 Ci/mmole) for 4 h, followed by lysis in 250 μl. Cleared cell lysate (10 μl) was incubated with 400 ng of wildtype or mutant GST-p16 fusion proteins using the same conditions as the in vitro kinase assay. […] The gel was stained using Coomassie blue, dried, and autoradiography was performed. […] To test the effect of compounds on p16 binding to CDK4, 100 μM of each compound was incubated with CDK4:cyclin D1 lysate for 30 min prior to adding GST-p16 fusion protein.

| SMILES | IC50 (CDC2:cyclin A) | IC50 (CDK2:cyclin A) | Ratio CDK2/A:CDK4 (CDK2:cyclin A) | IC50 (CDK2:cyclin E) | Ratio CDK2/E:CDK4 (CDK2:cyclin E) | IC50 (CDK4:cyclin D1) | further results |
| --- | --- | --- | --- | --- | --- | --- | --- |
| CCC/C=C/C=C/C(=O)O[C@H]1/C(=C/C(=O)OC)C[C@H]2C[C@H]([C@@H](C)O)OC(=O)C[C@H](O)C[C@@H]3C[C@H](OC(C)=O)C(C)(C)[C@](O)(C[C@@H]4C/C(=C/C(=O)OC)C[C@H](/C=C/C(C)(C)[C@]1(O)O2)O4)O3 [Bryostatin 1, reference compound] | – | – | – | – | – | – | Inhibition of GST-Rb phosphorylation by CDK4:cyclin D1 (CDK4:cyclin D1; concentrations up to 100 μM): no inhibitory activity |
| Nc1ccc2c(=S)c3ccccc3[nH]c2c1 [Compound 3, 3-Amino-10H-acridine-9-thione] | 60 µM | > 100 µM | >14.7 | 80 µM | 11.8 | 6.8 µM | Ratio CDC2A:CDK4 (CDC2:cyclin A): 8.8; Ratio CDC2A:CDK4 (CDC2:cyclin A; listed as 3-ATA): at least nine-fold higher; Ratio CDK2/A:CDK4 (CDK2:cyclin A; listed as 3-ATA): at least nine-fold higher; Ratio CDK2/E:CDK4 (CDK2:cyclin E; listed as 3-ATA): at least nine-fold higher; Decrease of binding of CDK4 to normal p16 (CDK4; 100 μM compound): 70%; Effect of exogenous ATP on inhibitory activity in CDK4 kinase assay (CDK4:cyclin D1; exogenous ATP 0 to 600 μM): did not alter the inhibitory activity |
| COc1ccc(OC)c2c(=S)c3ccccc3[nH]c12 [Compound 4, 1,4-Dimethoxy-10H-acridine-9-thione] | > 100 µM | > 100 µM | >45 | > 100 µM | >45 | 2.2 µM | Ratio CDC2A:CDK4 (CDC2:cyclin A): >45; CDC2 kinase inhibitory activity (CDC2:cyclin A; concentrations up to 100 μM): no CDC2 or CDK2 kinase inhibitory activity; CDK2 kinase inhibitory activity (CDK2:cyclin A) (CDK2:cyclin A; concentrations up to 100 μM): no CDC2 or CDK2 kinase inhibitory activity; CDK2 kinase inhibitory activity (CDK2:cyclin E) (CDK2:cyclin E; concentrations up to 100 μM): no CDC2 or CDK2 kinase inhibitory activity; Inhibition of p16INK4A binding to CDK4 (CDK4; 100 μM of each compound): did not inhibit; CDK4 kinase inhibitory potency compared with parent compounds (CDK4:cyclin D1): more potent CDK4 kinase inhibitors than the parent compounds |
| O=C(CNc1ccc2c(=S)c3ccccc3[nH]c2c1)Nc1ccccc1-c1ccccc1NC(=O)CNc1ccc2c(=S)c3ccccc3[nH]c2c1 [Compound 5, 2,2′-Biphenyldiamine, bis[N,N′-[3-(amidonmethylamino)-10H-acridine-9-thione]]] | 70 µM | > 100 µM | >91 | > 100 µM | >91 | 1.1 µM | CDK4 kinase inhibitory potency compared with parent compounds (CDK4:cyclin D1): more potent CDK4 kinase inhibitors than the parent compounds |
| O=S1(=O)NN=C(NCc2ccc(F)cc2)c2ccccc21 [Compound 6, 4-(4-Fluorobenzylamino)-1,2,3-benzothiadiazine-1,1-dioxide] | > 100 µM | > 100 µM | – | > 100 µM | – | 5 µM | – |
| O=S1(=O)NNC(=NCc2ccc(Cl)c(Cl)c2)c2ccccc21 [NSC 645788] | – | – | – | – | – | – | IC50 (CDK4:cyclin D1; read-out: IC50 value CDK4/D1): 17 µM |
| C[C@@H]1[C@]2(O[C@H]3C=C4[C@@H]5CC[C@H]6Cc7nc8c(nc7C[C@]6(C)[C@H]5C[C@@H](O)[C@]4(C)[C@]31O)C[C@@H]1CC[C@H]3C4=CC[C@@H]5[C@H](C)[C@@]6(OC[C@]45C(=O)C[C@@H]3[C@@]1(C)C8)OC(C)(C)C[C@H]6O)O[C@](C)(CO)C[C@H]2O [cephalostatin 1, reference compound] | – | – | – | – | – | – | IC50 (CDK4:cyclin D1; read-out: IC50 value CDK4/D1): 20 µM |
